Assay [1] addresses T1, rat semicarbazide-sensitive amine oxidase (SSAO) (Rattus norvegicus, UniProt O08590).
T1 sequence (O08590 1-763): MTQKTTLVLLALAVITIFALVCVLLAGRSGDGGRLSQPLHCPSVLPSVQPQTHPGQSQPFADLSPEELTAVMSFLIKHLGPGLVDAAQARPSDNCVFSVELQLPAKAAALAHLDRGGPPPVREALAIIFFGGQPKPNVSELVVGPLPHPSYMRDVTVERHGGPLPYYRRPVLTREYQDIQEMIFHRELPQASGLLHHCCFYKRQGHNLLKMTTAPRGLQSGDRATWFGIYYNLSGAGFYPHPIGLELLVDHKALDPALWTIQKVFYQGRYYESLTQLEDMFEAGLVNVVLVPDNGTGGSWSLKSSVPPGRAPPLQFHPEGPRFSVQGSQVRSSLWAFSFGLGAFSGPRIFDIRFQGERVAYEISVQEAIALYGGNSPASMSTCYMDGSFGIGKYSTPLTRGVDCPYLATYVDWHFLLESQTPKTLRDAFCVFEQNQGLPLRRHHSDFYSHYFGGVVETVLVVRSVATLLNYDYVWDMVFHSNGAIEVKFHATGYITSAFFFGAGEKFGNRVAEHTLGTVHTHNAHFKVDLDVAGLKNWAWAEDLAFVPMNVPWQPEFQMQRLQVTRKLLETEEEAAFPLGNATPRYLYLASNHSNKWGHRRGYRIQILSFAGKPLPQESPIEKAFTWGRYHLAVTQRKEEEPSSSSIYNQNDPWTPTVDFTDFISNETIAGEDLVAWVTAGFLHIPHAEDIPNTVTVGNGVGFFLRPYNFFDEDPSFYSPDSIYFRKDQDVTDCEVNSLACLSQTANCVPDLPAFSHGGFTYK
As to the kind of experiment: IC50 against rat SSAO. It counts as biochemical.

The subject of assay [2] is IL-1β-induced corneal angiogenesis in BALB/c mice. As to the kind of experiment: Leukocyte infiltration in IL-1β-implanted cornea (immunostaining). It counts as in vivo, mouse. To be noted: 0.3 mg/kg daily i.p. The protocol: (§1) BALB/c mice were anesthetized by intrapcritoneal (i.p.) injection of pentobarbital sodium (60 mg/kg). Hydron pellets (0.3 μl) containing 30 ng mouse IL-1β (401-ML; R&D Systems) were prepared and implanted into the corneas. Pellets were positioned 1 mm from the corneal limbus. Implanted eyes were treated with Bacitracin ophthalmic ointment (E. Fougera & Co.) to prevent infection.
(§2) To block VAP-1, mice received daily i.p. injections of a specific VAP-1 inhibitor, Compound II (R-tech Ueno Ltd., Tokyo, Japan) as described above. A daily dose of 0.3 mg/kg was administered at day 0 and continued until the sixth day after implantation. Two, four and six days after implantation, digital images of the corneal vessels were obtained and recorded using OpenLab software version 2.2.5 (Improvision Inc.) with standardized illumination and contrast and were saved onto disks. The quantitative analysis of new vessel growth in the mouse corneas was performed using Scion Image software (version 4.0.2; Scion Corp.).
Mice were sacrificed under deep anesthesia with pentobarbital sodium (60 mg/kg i.p.). The eyes were harvested, snap-frozen in optimal cutting temperature (OCT) compound (Sakura Finetechnical) and 10 μm sections were prepared, air-dried and fixed in cold acetone for 10 min. The sections were blocked with nonfat dried-milk (M7409; Sigma) for 10 minutes and stained with anti-CD11b mAb (1:100, 550282; BD Pharmingen), anti-Gr-1 mAb (1:100, 550282; BD Pharmingen) or anti-F4/80 mAb (1:100, MCA497G; Scrotec). After an overnight incubation, sections were washed and stained for 20 min. with secondary Abs, FITC-conjugated goat anti-rat (1:100, AP136F; Chemicon International).

Assay [3] deals with IL-1β-induced corneal lymphangiogenesis in BALB/c mice. As to the kind of experiment: IL-1β-induced corneal lymphangiogenesis (LYVE-1 stain). It counts as in vivo, mouse. To be noted: IL-1β pellet; i.p. administration; vs vehicle. The protocol:
as §1, §2
Eyes were enucleated and fixed with 4% paraformaldehyde for one hour at 4° C. For whole-mount preparation, the corneas were exposed by removing other portions of the eye (i.e. iris, sclera, retina, and conjunctiva). After washing with PBS, tissues were placed in methanol for 20 minutes. […]

The subject of assay [4] is laser-induced CNV in Brown-Norway rats. The assay can be described thus: Laser-induced CNV, fluorescein angiography leakage grading. The assay is classed as in vivo, rat. To be noted: day 7 after laser injury, 0.3 mg/kg daily i.p., n=12. The protocol:
Brown-Norway rats were anesthetized with 0.2-0.3 ml of a 50:50 mixture of 100 mg/ml Ketamine and 20 mg/ml Xylazine. Pupils were dilated with 5.0% Phenylephrine and 0.8% Tropicamide. CNV was induced with a 532 nm laser (Oculight GLx, Iridex, Mountain View, Calif.). Six laser spots (150 mW, 100 μm, 100 msec) were placed in each eye using a slit-lamp delivery system and a cover glass as a contact lens. Production of a bubble at the time of laser confirmed the rupture of the Bruch's membrane.
To block VAP-1, a specific VAP-1 inhibitor, Compound II described above, was used (R-tech Ueno, Ltd., Tokyo, Japan). After laser injury, the inhibitor (0.3 mg/kg BW) was administered to the animals by daily i.p. injections. As a control, some animals received the same regimen for the vehicle solution alone.
Seven days after laser injury, vascular leakage from the CNV lesions was assessed using fluorescein angiography (FA), as described previously (Zambarakji et al. (2001) IOVS 42: 1553-60). Briefly, FA was performed in anesthetized animals from VAP-1 inhibitor- or vehicle-treated groups, using a digital fundus camera (Model TRC 50 IA; Topcon, Paramus, N.J.). Fluorescein injections were performed intraperitoneally (0.2 ml of 2% fluorescein; Akorn, Decatur, Ill.).
The Grade-IIB lesions were defined as clinically significant, as described previously.

pIC50: −log10 of the molar value.

As usually defined, the pIC50 is the negative decadic logarithm of the IC50, by convention in mol/L. As for `CC(=O)Nc1nc(CCc2ccc(NC(=N)NN)cc2)c(Cc2ccc(S(C)(=O)=O)cc2)s1` [Compound II], the pIC50 in assay [1] is 8.10. Further, in assay [2] (3 days after pellet implantation), the “infiltration of CD11b(+) cells in cornea” value was “effectively inhibited”. In addition, in assay [2] (IL-1β-implanted cornea), the “number of F4/80(+) cells in cornea” value was “less than in vehicle-treated cornea or untreated cornea” and the “number of Gr-1(+) cells in cornea” value is on record as “less than in vehicle-treated cornea or untreated cornea”. In addition, the “growth of lymphatic vessels in cornea” value in assay [3] is recorded as “reduced growth of lymphatic vessels”. Also, the “incidence of clinically significant CNV lesions graded as IIB” value in assay [4] was found to be 41.8%.

These data come from patent publication US20190076406A1, “METHODS AND COMPOSITIONS FOR TREATING CONDITIONS ASSOCIATED WITH ANGIOGENESIS USING A VASCULAR ADHESION PROTEIN-1 (VAP-1) INHIBITOR” (MASSACHUSETTS EYE & EAR INFIRMARY, priority 2007, published 2019).
